# Source: patent publication EP0293500A1, “3-heteroalkyl-2,4.quinzaoline-diones” (AMERICAN CYANAMID COMPANY, priority 1987, dated 1988)
# Where a name gives a salt, the structure may show the parent alone.
# Experiments:
# [1] = target: T1, thromboxane synthetase (Rattus norvegicus, UniProt P49430); assay: Inhibition of thromboxane (TX) formation (TXB2 radioimmunoassay) in washed rat platelets; format: cell-based, Okamoto-Aoki spontaneously hypertensive rats (SHR); conditions: percent inhibition of TXB2 formation; drug at 10^-4M; SHR platelet suspension, 10 minutes at 37 C
# T1 construct: The platelets were isolated by centrifuging the PRP for 10 minutes at 1060xg; from tissue; host or cells: washed blood platelets from Okamoto-Aoki spontaneously hypertensive rats (SHR)
# T1 sequence (P49430 1-533): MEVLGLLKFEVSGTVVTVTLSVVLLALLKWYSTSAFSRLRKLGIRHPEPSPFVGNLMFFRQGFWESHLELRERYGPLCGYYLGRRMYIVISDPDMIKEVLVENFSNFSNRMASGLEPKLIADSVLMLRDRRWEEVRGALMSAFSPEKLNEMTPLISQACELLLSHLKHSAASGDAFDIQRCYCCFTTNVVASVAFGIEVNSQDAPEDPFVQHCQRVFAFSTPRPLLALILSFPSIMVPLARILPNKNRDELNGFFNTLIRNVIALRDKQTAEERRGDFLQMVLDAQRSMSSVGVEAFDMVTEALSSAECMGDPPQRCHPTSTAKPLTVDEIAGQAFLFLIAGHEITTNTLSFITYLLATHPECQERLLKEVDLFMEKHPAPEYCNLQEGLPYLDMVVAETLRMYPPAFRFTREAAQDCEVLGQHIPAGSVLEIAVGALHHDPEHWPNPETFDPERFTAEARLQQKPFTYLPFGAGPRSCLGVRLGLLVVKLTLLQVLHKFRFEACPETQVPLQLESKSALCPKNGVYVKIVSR
# Source text: The platelet rich plasma (PRP) was separated. […] The inhibition of thromboxane (TX) formation was studied by determing the concentration of thromboxane […] (TXB2), the stable hydrolysis product of TXA2.
# [2] = tested on: spontaneously hypertensive rats of the Okamoto strain; assay: Hypotensive activity in spontaneously hypertensive rats (method of Chan and Poorvin); format: in vivo; conditions: male SHR, average MABP 160±1.5 mm of mercury; gavage, 100 mg/kg or less, second identical dose 24 hours later; MABP at 28 hours after the initial dose; number of rats in brackets
# Protocol: The novel compounds of the present invention are also active hypotensive agents and were tested for hypotensive activity by the method of P. S. Chan and b. Poorvin, Clinical and Experimental Hypertension, 1 (6), 817-830 (1979). Male, 16 week old, spontaneously hypertensive rats of the Okamoto strain, from Taconic Farms, Germantown, New York having an average mean arterial blood pressure of 160±1.5 mm of mercury were used in the test. […] A second identical dose of the test compound, without sodium chloride loading is given 24 hours later. At 28 hours after the initial dose, the mean arterial blood pressure (MABP) is measured by the method of Chan and Poorvin vide supra. The procedure is repeated in a second and third rat when necessary. The results of this test on representative compounds of the present invention appear in Table II below.
Compound,inhibition at 100 µM [1] [%],MABP/mm Hg (no. of rats) [2]
"O=c1[nH]c2ccccc2c(=O)n1CCCn1ccnc1 [Example 10, 3-[3-(1 H-Imidazol-1-yl)propyl]-2,4-(1H,3H)-quinazolinedione]",76,131(3) mm Hg
"O=c1c2cc(Cl)ccc2ncn1CCCCCCCCn1ccnc1 [Example 143, 6-Chloro-3-[8-(1H-imidazol-1-yl)octyl]-4(3H)-quinazolinone]",70,118(2) mm Hg
"O=c1c2cc(Br)ccc2ncn1CCCCn1ccnc1 [Example 125, 6-Bromo-3-[4-(1H-imidazol-1-yl)-butyl]-4(3H)-quinazolinone, dihydro-chloride]",99,121(2) mm Hg
"CC(Cn1ccnc1)Cn1c(=O)[nH]c2ccccc2c1=O (centres unmarked) [Example 21, 3-[3-(1H-Imidazol-1-yl)-2-methylpropyl]-2,4(1H,3H)-quinazolinedione]",100,112(2) mm Hg
"CC(CCn1c(=O)[nH]c2c(Cl)cccc2c1=O)n1ccnc1 (centres unmarked) [Example 44, 8-Chloro-3-[3-(1H-imidazol-1-yl)butyl]-2,4(1H,3H)-quinazolinedione]",71,112(2) mm Hg
"O=c1c2cc(Cl)ccc2ncn1CCCn1ccnc1 [Example 138, 6-Chloro-[3-(1H-imidazol-1-yl)propyl]-4(3H)-quinazolinone]",75,100(2) mm Hg
"CCc1nc2ccc(Cl)cc2c(=O)n1CCCn1ccnc1 [Example 158, 6-Chloro-2-ethyl-3-[3-(1H-imidazol-1-yl)propyl]-4(3H)-quinazolinone]",–,120(4) mm Hg
"CC(CCn1c(=O)[nH]c2cc(Cl)ccc2c1=O)n1ccnc1 (centres unmarked) [Example 41, 7-Chloro-3-[3-(1H-imidazol-1-yl)butyl]-2,4(1H,3H)-quinazolinedione]",51,128(2) mm Hg
"O=c1c2ccccc2nnn1CCCCCCn1ccnc1 [Example 102, 3-[6-(1H-Imida-zol-1-yl)hexyl]-1,2,3-benzotria-zin-4(3H)-one, monohydrochloride]",96,87(2) mm Hg
"Cc1cn(CCCn2c(=O)[nH]c3ccc(Cl)cc3c2=O)cn1 [Example 26, 6-Chloro-3-[3-(4-methyl-1H-imidazol-1-yl)-propyl]-2,4(1H,3H)-quinazolinedione]",99,125(3) mm Hg
"O=c1c2ccccc2ncn1CCCCn1ccnc1 [Example 123, 3-[4-(1H-Imidazol-1-yl)butyl]-4(3H)-quinazolinone, dihydro-chloride]",83,117(3) mm Hg
"O=c1[nH]c2ccc(Br)cc2c(=O)n1CCCCn1ccnc1 [Example 12, 6-Bromo-3-[4-(1H-imidazol-1-yl)butyl]-2,4(1H,3H)-quinazolinedione]",98,107(2) mm Hg
"O=c1c2cc(Cl)ccc2nnn1CCCCCCCCn1ccnc1 [6-Chloro-3-[8-(1H-imidazol-1-yl)octyl]-1,2,3-benzotriazin-4(3H)-one, monohydro-chloride]",90,116(2) mm Hg
"O=c1c2cc(Cl)ccc2ncn1CCCCn1ccnc1 [Example 124, 6-Chloro-3-[4-(1H-imidazol-1-yl)-butyl]-4(3H)-quinazolinone, dihydro-chloride]",99,106(2) mm Hg
"Cc1ccc2c(=O)n(CCCCn3ccnc3)nnc2c1C.Cl [Example 86, 3-[4-(1H-Imidazol-1-yl)butyl]-7,8-dimethyl-1,2,3-benzotriazin-4(3H)-one, monohydrochloride]",93,121(2) mm Hg
"CC(CCn1c(=O)[nH]c2ccc(Cl)cc2c1=O)n1ccnc1 (centres unmarked) [Example 30, 6-Chloro-3-[3-(1H-imidazol-1-yl)-butyl]-2,4(1H,3H)-quinazolinedione]",98,113(2) mm Hg

Compound,inhibition at 100 µM [1] [%],MABP/mm Hg (no. of rats) [2]
"Cl.Cl.O=c1c2ccccc2ncn1CCCCCn1ccnc1 [Example 137, 3-[5-(1H-Imidazol-1-yl)pentyl]-4(3H)-quinazolinone, dihydrochloride]",–,110(2) mm Hg
"O=c1c2ccccc2nnn1CCCn1ccnc1 [3-[3-(1H-Imidazol-1-yl)propyl]-1,2,3-benzotriazin-4(3H)-one]",97,111(2) mm Hg
"O=c1[nH]c2ccccc2c(=O)n1CCCCCn1ccnc1 [Example 18, 3-[5-(1 H-Imidazol-1-yl)pentyl]-2,4(1H,3H)-quinazolinedione]",98,104(2) mm Hg
"Cc1ccc2[nH]c(=O)n(CCC(C)n3ccnc3)c(=O)c2c1 (centres unmarked) [Example 17, 3-[3-(1H-Imidazol-1-yl)butyl]-6-methyl-2,4(1H,3H)-quinazolinedione]",88,111(2) mm Hg
"Cc1cn(CCCn2c(=O)[nH]c3ccccc3c2=O)cn1 [Example 19, 3-[3-(4-Methyl-1H-imidazol-1-yl)propyl]-2,4(1H,3H)-quinazolinedione]",98,135(3) mm Hg
"CC(Cn1ccnc1)Cn1c(=O)[nH]c2ccc(Cl)cc2c1=O (centres unmarked) [Example 31, 6-Chloro-3-[3-(1H-imidazol-1-yl)-2-methylpropyl]-2,4(1H,3H)-quinazolinedione]",100,126(3) mm Hg
"Cc1ccc2ncn(CCC(C)n3ccnc3)c(=O)c2c1 (centres unmarked) [Example 127, 3-[3-(1H-Imidazol-1-yl)butyl]-6-methyl-4(3H)-quinazolinone]",87,133(4) mm Hg
"CC(CCn1cnc2ccccc2c1=O)n1ccnc1.O=C(O)/C=C/C(=O)O (centres unmarked) [3-[3-(1H-Imidazol-1-yl)butyl]-4(3H)-quinazolinone, fumarate salt]",–,119(2) mm Hg
"O=c1[nH]c2ccccc2c(=O)n1CCCCn1ccnc1 [Example 11, 3-[4-(1H-Imidazol-1-yl)butyl]-2,4(1H,3H)-quinazolinedione]",100,108(2) mm Hg
"O=c1c2cc(Br)ccc2ncn1CCCn1ccnc1 [Example 126, 6-Bromo-3-[3-(1H-imidazol-1-yl)-propyl]-4(3H)-quinazolinone]",99,122(2) mm Hg
"CC(Cn1ccnc1)Cn1nnc2ccc([N+](=O)[O-])cc2c1=O.O (centres unmarked) [Example 87, 3-[3-(1H-Imidazol-1-yl)-2-methyl-propyl]-6-nitro-1,2,3-benzo-triazin-4(3H)-one, hydrate]",95,114(2) mm Hg
"O=c1c2ccccc2ncn1CCCn1ccnc1 [Example 122, 3-[3-(1 H-Imidazol-1-yl)propyl]-4(3H)-quinazolinone]",51,139(2) mm Hg
"Cc1ccc2c(=O)n(CCCCn3ccnc3)c(=O)[nH]c2c1C [Example 50, 7,8-Dimethyl-3-[4-(1H-imidazol-1-yl)-butyl]-2,4(1H,3H)-quinazolinedione]",–,104(2) mm Hg
"O=c1c2ccc(Cl)cc2ncn1CCCCn1ccnc1 [Example 149, 7-Chloro-3-(4-(1H-imidazol-1-yl)butyl]-4(3H)-quinazolinone]",–,126(2) mm Hg
"O=c1c2cc(Cl)ccc2nnn1CCCCn1ccnc1 [Example 88, 6-Chloro-3-[4-(1H-imidazol-1-yl)-butyl]-1,2,3-benzotriazin-4(3H)-one]",–,105(2) mm Hg
